Laboratory results as given in US6451853B1, “Small molecules that elicit a polarized Th1 response and for modulation of cellular immunity” (Dovetail Technologies, Inc, priority 1998, dated 2002).
“And” between values parts separate entries of the source, which are not always exact repeats. Equal entries are not always repeated. Where two headings read alike, the source gives them in different places.

Columns and labels:
[1] = test system: CD-1 mice; conditions: for Mortality: CD-1 mice
[2] = test system: surface TNF alpha on human T cells; experiment: Surface TNF alpha expression on T cells by FACS (gating on CD3+ cells); conditions: for Change in with BT/without BT: 20 mM BT; for % Positive ± SD (T cells expressing high levels of surface TNF alpha) / MFI ± SD: PMA/ionomycin; for surface TNF alpha, overall MFI: With BT 20 mM; for surface TNF alpha level: unstimulated T cells, BT alone 20 mM, single donor
[3] = test system: Monocyte Chemokine Message levels; experiment: RNase protection assay of monocyte chemokine message levels; format: cell-based, human; conditions: Media + beta-alethine 20 mM; RPA phosphorimaging normalized on L32
Protocol: Monocyte expression of chemokines was also assessed in beta-alethine-treated cells (Table 3). While IP-10 expression was decreased by beta-alethine, the levels of the chemoattractants MIP-1a and IL-8 were increased slightly. Bacterial infections are contained by an inflammatory response. MIP-1a recruits macrophages, T cells and eosinophils to the infection site, and IL-8 recruits neutrophils. Therefore both of these chemokines are important in fighting pathogen-induced infections.

[4] = test system: Cytokine mRNA from T cells (PBMC); experiment: RNase protection assay of cytokine mRNA in PBMC (T cells), with or without PMA/ionomycin; conditions: for PMA/ionomycin-induced upregulation of TNF alpha message: PMA/ionomycin stimulation
[5] = test system: TNF-R I on T cells (PBMCs); experiment: TNF receptor I expression on T cells by FACS
[6] = test system: HL60 targets; experiment: T cell-dependent cytotoxicity toward HL60 targets (MTT reduction assay)
[7] = in vivo; conditions: both, CD-1, mouse, iv
[8] = test system: panel of human T-cell lines; experiment: Surface TNF alpha expression on a panel of human T-cell lines; format: cell-based; conditions: data not shown
[9] = test system: soluble TNF alpha release from human lymphocytes; experiment: Soluble TNF alpha in supernatants by ELISA; conditions: Media (unstimulated); drugs 20 mM; ELISA standard curve in pg/mL, unit not given
[10] = test system: surface TNF alpha on human monocytes; experiment: Surface TNF alpha expression on monocytes by FACS (CD14+ cells); format: cell-based; parameters: TNF alpha from Monocytes, With BT / change with BT versus without BT: unit not given here; conditions: for TNF alpha from Monocytes, With BT / change with BT versus without BT: 20 mM BT; for surface TNF alpha expression: all drugs 20 mM
Text: The effect of NAC and BT, alone or in combination, on surface TNF alpha expression by stimulated or unstimulated monocytes (prepared from PBM) was examined. […] Table 6. While only a small proportion of T cells from each donor were responsive to the combination NAC/BT, the effect on surface TNF alpha expression in monocytes was significant.

[11] = stimulation 1 micromolar Ionomycin and 10 ng/ml PMA, 48 hrs
[12] = stimulation 1 micromolar Ionomycin and 10 ng/ml PMA, individual donors/dates
[13] = BT 27 nM, no stimulation, 6 hours
[14] = BT 2.7 uM, no stimulation, 6 hours
[15] = BT 20 mM, no stimulation, 6 hours
[16] = Media (no stimulation), individual donors/dates
[17] = Stimulation, individual donors/dates

In the case of `NCCC(=O)NCCSSCCNC(=O)CCN` [BT, beta-alethine], the “gross pathology at necropsy” value ([1]; mouse, in vivo) is reported as “No gross pathology”, the Mortality ([1]; single bolus intravenous dose 67 mg/kg) is reported as 0/2 and the Mortality ([1]; single bolus intravenous dose 333 mg/kg) is reported as 1/3. For the same compound, the Mortality ([1]; single bolus intravenous dose 667 mg/kg) was 2/2, the “Change in with BT/without BT” value [2, 11] was 84.527% and the “Change in with BT/without BT” value [2, 12] was 45.223% and 66.236% and 49.403% and 71.042% and 4.276% and 68.647% and 152.007% and 27.185% and 104.690% and 325.647%. The “% Positive ± SD (T cells expressing high levels of surface TNF alpha)” value (from here on “% Positive ± SD”) ([2]; Dose 2.7 mM, 16 hours) was 10.86 ± .92%, the “MFI ± SD” value ([2]; Dose 2.7 mM, 16 hours) was 94.52 ± 1.83 and the “% Positive ± SD” value ([2]; Dose 20 mM, 16 hours) was 24.25 ± 6.25%. The “MFI ± SD” value ([2]; Dose 20 mM, 16 hours) was 127.37 ± 12.5, the “% Positive ± SD” value ([2]; Dose .0085 mM, 16 hours) was 4.96 ± .41% and the “MFI ± SD” value ([2]; Dose .0085 mM, 16 hours) was 59.84 ± 4.08. The “% Positive ± SD” value ([2]; Dose .027 mM, 16 hours) was 5.18 ± 1.73%, the “MFI ± SD” value ([2]; Dose .027 mM, 16 hours) was 63.49 ± .28 and the “% Positive ± SD” value ([2]; Dose .085 mM, 16 hours) was 8.4 ± .5%. The “MFI ± SD” value ([2]; Dose .085 mM, 16 hours) was 74.18 ± 7.98, the “% Positive ± SD” value ([2]; Dose .27 mM, 16 hours) was 7.33 ± .38% and the “MFI ± SD” value ([2]; Dose .27 mM, 16 hours) was 71.17 ± .77. The “% Positive ± SD” value ([2]; Dose .85 mM, 16 hours) was 9.38 ± 1.57%, the “MFI ± SD” value ([2]; Dose .85 mM, 16 hours) was 81.93 ± 6.33 and the “time for which increased surface TNF alpha expression was sustained” value ([2]; PMA/ionomycin-stimulated cells) was “over 50 hours”. The “surface TNF alpha expression, Time Course” value ([2]; Pma/iono, 6 hours, 2.7 mM) was 149, the “surface TNF alpha expression, Time Course” value ([2]; Pma/iono, 6 hours, each drug 20 mM) was 112 and the “surface TNF alpha expression, Time Course” value ([2]; Pma/iono, 16 hours, 2.7 mM) was 179. For the same compound, the “surface TNF alpha expression, Time Course” value ([2]; Pma/iono, 16 hours, each drug 20 mM) was 220, the “surface TNF alpha expression, Time Course” value ([2]; Pma/iono, 24 hours, 2.7 mM) was 208 and the “surface TNF alpha expression, Time Course” value ([2]; Pma/iono, 24 hours, each drug 20 mM) was 226. For the same compound, the “surface TNF alpha expression, Time Course” value ([2]; Pma/iono, 42 hours, 2.7 mM) was 120, the “surface TNF alpha expression, Time Course” value ([2]; Pma/iono, 42 hours, each drug 20 mM) was 247 and the “surface TNF alpha expression, Time Course” value ([2]; Pma/iono, 68 hours, 2.7 mM) was 64. For the same compound, the “surface TNF alpha expression, Time Course” value ([2]; Pma/iono, 68 hours, each drug 20 mM) was 174, the “surface TNF alpha, overall MFI” value [2, 11] was 146.81 and the “surface TNF alpha, overall MFI” value [2, 12] was 164.48 and 83.65 and 123.87 and 25.93 and 48.53 and 105.59 and 435.04 and 25.17 and 508.43 and 292.59. The “surface TNF alpha, overall MFI” value ([2]; stimulation with 1 ng PMA, individual donors) was 133.13 and 25.41, the “surface TNF alpha level” value ([2]; 15 hours post-exposure (control 25)) was 75 and the “surface TNF alpha level” value ([2]; forty hours (control 25)) was 100. For the same compound, the “surface TNF alpha expression, Time Course” value ([2]; unstimulated, 6 hours, 2.7 mM) was 22, the “surface TNF alpha expression, Time Course” value ([2]; unstimulated, 6 hours, each drug 20 mM) was 32 and the “surface TNF alpha expression, Time Course” value ([2]; unstimulated, 16 hours, 2.7 mM) was 42. For the same compound, the “surface TNF alpha expression, Time Course” value ([2]; unstimulated, 16 hours, each drug 20 mM) was 76, the “surface TNF alpha expression, Time Course” value ([2]; unstimulated, 24 hours, 2.7 mM) was 47 and the “surface TNF alpha expression, Time Course” value ([2]; unstimulated, 24 hours, each drug 20 mM) was 67. The “surface TNF alpha expression, Time Course” value ([2]; unstimulated, 42 hours, 2.7 mM) was 79, the “surface TNF alpha expression, Time Course” value ([2]; unstimulated, 42 hours, each drug 20 mM) was 101 and the “surface TNF alpha expression, Time Course” value ([2]; unstimulated, 68 hours, 2.7 mM) was 30. The “surface TNF alpha expression, Time Course” value ([2]; unstimulated, 68 hours, each drug 20 mM) was 41, the IL-8 message level [3] was 11,615,894 and the IP-10 message level [3] was 55,214. The “MIP-1 alpha message level” value [3] was 909,291, the “MIP-1 beta message level” value [3] was 554,709 and the “% Change GAPDH mRNA” value [4, 13] was −10.95%. The “% Change IFNg mRNA” value [4, 13] was 21.11%, the “% Change LTb mRNA” value [4, 13] was 27.48% and the “% Change TGFb1 mRNA” value [4, 13] was 26.69%. For the same compound, the “% Change TNFa mRNA” value [4, 13] was 10.04%, the “% Change TNFb mRNA” value [4, 13] was 42.88% and the “% Change GAPDH mRNA” value [4, 14] was −4.78%. The “% Change IFNg mRNA” value [4, 14] was 20.17%, the “% Change LTb mRNA” value [4, 14] was 25.70% and the “% Change TGFb1 mRNA” value [4, 14] was 42.15%. The “% Change TNFa mRNA” value [4, 14] was 24.94%, the “% Change TNFb mRNA” value [4, 14] was 220.87% and the “% Change IFNg mRNA” value [4, 15] was 109.71% and 94.74% and 139.51%. For the same compound, the “% Change IL-1Ra mRNA” value [4, 15] was 30.84%, the “% Change IL-1a mRNA” value [4, 15] was 9.07% and the “% Change IL-1b mRNA” value [4, 15] was 60.09%. The “% Change IL-2 mRNA” value [4, 15] was 95.02%, the “% Change IL-4 mRNA” value [4, 15] was 135.82% and the “% Change IL-5 mRNA” value [4, 15] was 161.15%. For the same compound, the “% Change IL-8 mRNA” value [4, 15] was 10.65%, the “% Change IL-9 mRNA” value [4, 15] was 22.86% and the “% Change IL-13 mRNA” value [4, 15] was 83.76%. For the same compound, the “% Change IL-15 mRNA” value [4, 15] was 4.88%, the “% Change LTN* mRNA” value [4, 15] was 58.25% and the “% Change LTb mRNA” value [4, 15] was 117.13%. For the same compound, the “% Change MIP-1 alpha mRNA” value [4, 15] was 25.98%, the “% Change MIP-1 beta mRNA” value [4, 15] was −4.79% and the “% Change RANTES mRNA” value [4, 15] was −2.09%. For the same compound, the “% Change TGFb1 mRNA” value [4, 15] was 82.08%, the “% Change TNFa mRNA” value [4, 15] was 168.85% and the “% Change TNFb mRNA” value [4, 15] was 77.91%. The “ratio of TNF alpha: TGF beta message (densitometry)” value ([4]; PMA/ionomycin + 20 mM BT (PMA/ionomycin alone 3.61)) was 7.12, the “PMA/ionomycin-induced upregulation of TNF alpha message” value ([4]; 2.7 mM BT, 6 hours) was “maintained” and the “PMA/ionomycin-induced upregulation of TNF alpha message” value ([4]; 20 mM BT, 6 hours) was “further enhanced”. The “ratio of TNF alpha: TGF beta message (densitometry)” value ([4]; media + 20 mM BT (media alone 0.092)) was 1.36, the “TNF Receptor I Expression (mean fluorescent channel)” value (“TNF Receptor I Expression” below) ([5]; PMA/ionomycin + 20 mM BT, 20 hours) was 329 and the “TNF Receptor I Expression” value ([5]; PMA/ionomycin + 20 mM BT, 45 hours) was 548. For the same compound, the “TNF Receptor I Expression” value ([5]; PMA/ionomycin + 20 mM BT, 69 hours) was 489, the “TNF Receptor I Expression” value ([5]; unstimulated, 20 mM BT, 20 hours) was 136 and the “TNF Receptor I Expression” value ([5]; unstimulated, 20 mM BT, 45 hours) was 109. The “TNF Receptor I Expression” value ([5]; unstimulated, 20 mM BT, 69 hours) was 96, the “T cell dependent cytotoxic activity toward HL60 in the presence of neutralizing anti-TNF alpha antibodies” value ([6]; 20 mM BT, PMA/ionomycin stimulated, data not shown) was “inhibited” and the “T cell-Mediated Cytotoxicity, optical density at 540 nm ± SD” value ([6]; PMA/ionomycin-stimulated T cells, 0.85 mM, 10:1 effector:target, 24 hours) was “.191 ± .003”. For the same compound, the LD50 at 2 weeks [7] was over 100 mg/kg, the “surface TNF alpha expression” value [8] was “induced upregulation” and the “Soluble TNF” value [9] was 29. The “TNF alpha from Monocytes, With BT” value ([10]; Media (no stimulation), 48 hrs) was 14.22, the “change with BT versus without BT” value ([10]; Media (no stimulation), 48 hrs) was 0.07037 and the “TNF alpha from Monocytes, With BT” value [10, 16] was 124.26 and 10.53 and 24.06. For the same compound, the “change with BT versus without BT” value [10, 16] was 78.87 and −44.17 and 18.58, the “TNF alpha from Monocytes, With BT” value ([10]; Stimulation, 48 hrs) was 34.59 and the “change with BT versus without BT” value ([10]; Stimulation, 48 hrs) was −6.107. The “TNF alpha from Monocytes, With BT” value [10, 17] was 71.42 and 202.15 and 41.97 and 143.51 and 87.59, the “change with BT versus without BT” value [10, 17] was 11.54 and 249.1 and −52.59 and 126.7 and 127.7 and the “surface TNF alpha expression” value ([10]; stimulated monocytes) was “induced significant surface TNF alpha expression”. The “surface TNF alpha expression” value ([10]; unstimulated monocytes) was “not upregulated”.
